Laboratory results: PMC11873616 (Acta Pharmaceutica Sinica. B, 2024)

Key:
IEC6 cells [1] = assay: Fibrosis/EMT-related gene and protein expression in TGFβ1-induced EMT cell model; format: cell-based, rat; conditions: for expression of fibrotic genes and proteins (Vimentin, αSMA): TGFβ1, oxamate 20 mmol/L, DCA 20 mmol/L or rotenone 10 nmol/L
IEC6 cells [2] = assay: Lactate determination in cell culture supernatant; format: cell-based, rat; conditions: TGFβ1 10 ng/mL, 2DG 1 mmol/L, 7 days, n = 6
IEC6 cells [3] = assay: Glycolysis and metabolic gene expression in TGFβ1-induced cells; format: cell-based, rat; conditions: TGFβ1 + 2DG vs TGFβ1, n = 7–8
Smad2 or Smad3 = assay: Smad2/Smad3 phosphorylation after lactate treatment; format: cell-based
IEC6 cells [4] = assay: Histone lactylation; format: cell-based, rat; conditions: exogenous lactate, Western blot, n = 3

In the case of `O=CC[C@@H](O)[C@H](O)[C@H](O)CO` [Peptide 2DG, 2-Deoxy-D-glucose], the “expression of fibrotic genes and proteins” value (IEC6 cells [1]; TGFβ1 10 ng/mL, 2DG 1 mmol/L, 7 days) is reported as “substantial reduction”, the “lactate levels (TGFβ1-mediated extracellular lactate production)” value (IEC6 cells [2]) is reported as “substantial reduction” and the “glycolysis (GSEA-KEGG of gene expression)” value (IEC6 cells [3]) is reported as “effectively inhibited glycolysis”.
With `CC(O)C(=O)O` (stereo not drawn) [lactate] the “expression of fibrotic genes after lactate stimulation (qRT-PCR)” value (IEC6 cells [1]; lactate 10 mmol/L for 72 h, no TGFβ1, n = 6) was “significantly elevated”, the “phosphorylation of Smad2 or Smad3” value (Smad2 or Smad3) was “did not alter” and the “site-specific histone lactylation (H2BK16la, H3K9la, H3K18la, H4K5la and H4K12la)” value (IEC6 cells [4]) was “induced overwhelming lactylation modifications”.
With `NC(=O)C(=O)O` [oxamate] the “expression of fibrotic genes and proteins (Vimentin, αSMA)” value (from here on “expression … (Vimentin, αSMA)”) (IEC6 cells [1]) was “more pronounced reduction”.
For `O=C(O)C(Cl)Cl` [DCA, sodium dichloroacetate], the “expression … (Vimentin, αSMA)” value (IEC6 cells [1]) was “more pronounced reduction”.
`C=C(C)[C@H]1Cc2c(ccc3c2O[C@@H]2COc4cc(OC)c(OC)cc4[C@@H]2C3=O)O1` [rotenone] was tested, and the “expression … (Vimentin, αSMA)” value (IEC6 cells [1]) was “increased the expression of fibrotic genes”.
